Publication PMC8037418, “Outlining In Vitro and In Silico Cholinesterase Inhibitory Activity of Twenty-Four Natural Products of Various Chemical Classes: Smilagenin, Kokusaginine, and Methyl Rosmarinate as Emboldening Inhibitors” (Molecules, 2021)
In brackets after ≈: the same amount, converted by molar mass. Read-outs that look alike come from different tables or passages of the source.

Assays:
AChE [1] = target: T1, AChE (Homo sapiens, UniProt P22303); experiment: biochemical; conditions: for inhibition at 100 µg/mL: read-out: ChE Inhibition (Inhibition % ± S.D. at 100 µg/mL) AChE
T1 sequence (P22303 32-614): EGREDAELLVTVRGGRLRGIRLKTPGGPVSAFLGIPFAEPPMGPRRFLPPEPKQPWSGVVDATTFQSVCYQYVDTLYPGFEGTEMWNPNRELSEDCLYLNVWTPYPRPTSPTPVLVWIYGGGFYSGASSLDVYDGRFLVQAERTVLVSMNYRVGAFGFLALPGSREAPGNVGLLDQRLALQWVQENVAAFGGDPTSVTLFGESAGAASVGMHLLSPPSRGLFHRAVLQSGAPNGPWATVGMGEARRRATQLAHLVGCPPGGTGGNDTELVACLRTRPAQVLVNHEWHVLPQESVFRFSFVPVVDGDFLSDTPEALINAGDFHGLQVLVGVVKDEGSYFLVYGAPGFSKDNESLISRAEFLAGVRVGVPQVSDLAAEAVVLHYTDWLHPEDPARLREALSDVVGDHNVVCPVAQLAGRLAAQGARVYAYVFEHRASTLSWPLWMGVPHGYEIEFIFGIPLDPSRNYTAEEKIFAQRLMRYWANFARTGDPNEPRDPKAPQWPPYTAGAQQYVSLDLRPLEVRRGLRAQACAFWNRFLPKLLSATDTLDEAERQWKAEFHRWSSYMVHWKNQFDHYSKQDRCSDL
Protocol: (§1) Inhibition of AChE and BChE was determined by Ellman’s method with slight modifications. To the reaction mixture, 140 µL of […] sodium phosphate buffer (pH 8), 20 µL of DTNB, 20 µL of enzyme (either AChE or BChE) and 20 µL of the samples to be tested was added later incubated for 15 min at 25 °C. About 10 µL of […] or butyrylthiocholine chloride which act as substrates to react with DTNB forming 5-thio-2-nitrobenzoate anion, that formed a yellow-colored complex, was added into the incubated sample. The absorbance is measured at 417 nm using a 96-well ELISA microplate reader (VersaMax, Molecular Devices, San Jose, CA, USA) Galanthamine was used the reference drug.
(§2) The measurements and calculations were evaluated by using Softmax PRO 4.3.2.LS software. Percentage of inhibition of AChE/BChE/TYR was determined by comparison of rates of reaction of test samples relative to blank samples. Extent of the enzymatic reaction was calculated based on the following equation: I% = (C-T)/C × 100, where I% is the activity of the enzyme as percent inhibition. E value expresses the effect of the test sample or the positive control on AChE/BChE/TYR enzyme activity articulated as the percentage of the remaining activity in the presence of test sample or positive control. C value is the absorbance of the control solvent (blank) in the presence of enzyme, where T is the absorbance of the tested sample (plant extract or positive control in the solvent) in the presence of enzyme.

BChE [2] = target: T2, BChE (Homo sapiens, UniProt P06276); experiment: Microtiter (Ellman) assay for BChE inhibition; assay type: biochemical; conditions: for inhibition at 100 µg/mL: read-out: ChE Inhibition (Inhibition % ± S.D. at 100 µg/mL) BChE
T2 sequence (P06276 29-602): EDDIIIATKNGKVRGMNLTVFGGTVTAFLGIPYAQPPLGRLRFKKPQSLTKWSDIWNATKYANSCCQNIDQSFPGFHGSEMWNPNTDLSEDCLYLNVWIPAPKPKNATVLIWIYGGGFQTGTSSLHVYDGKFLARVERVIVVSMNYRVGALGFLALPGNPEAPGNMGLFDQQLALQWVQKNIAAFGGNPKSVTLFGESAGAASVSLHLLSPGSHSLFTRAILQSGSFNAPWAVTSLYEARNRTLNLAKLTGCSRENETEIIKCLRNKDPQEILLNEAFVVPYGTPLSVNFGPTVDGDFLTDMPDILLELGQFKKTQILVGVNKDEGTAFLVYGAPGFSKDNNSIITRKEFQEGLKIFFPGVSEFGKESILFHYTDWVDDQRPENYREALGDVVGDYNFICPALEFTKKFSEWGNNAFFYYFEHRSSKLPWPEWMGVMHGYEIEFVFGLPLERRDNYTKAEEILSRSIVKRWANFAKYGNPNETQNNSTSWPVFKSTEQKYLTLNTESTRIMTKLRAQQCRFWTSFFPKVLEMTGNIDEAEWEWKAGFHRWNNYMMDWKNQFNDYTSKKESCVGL
Protocol: as §1, §2

[3] = system: AChE of electric eel origin; conditions: cited from earlier work
AChE [4] = target: T1, AChE; conditions: cited from earlier work
BChE [5] = target: T2, BChE; conditions: cited from earlier work
[6] = at 100 µg/mL, n: 3, '-' = No inhibition
[7] = at 100 μg/mL, from Verbascum xanthophoeniceum and V. mucronatum

| Molecule | inhibition at 100 µg/mL (AChE [1]; [6]) | inhibition at 100 µg/mL (BChE [2]) | further results |
| --- | --- | --- | --- |
| COc1cc(C=CC(=O)OC2C(COC3OCC(O)(CO)C3O)OC(OCCc3ccc(O)c(O)c3)C(O)C2OC2OC(C)C(O)C(O)C2O)ccc1O (stereo not drawn) [Alyssonoside] | < 0% | – | inhibition at 100 µg/mL (BChE [2]; [6]): 13 ± 2.07% |
| CC(C)(O)[C@@H]1CC[C@](C)([C@H]2[C@@H](O)C[C@@]3(C)[C@@H]4C[C@H](O[C@@H]5O[C@H](CO)[C@@H](O)[C@H](O)[C@H]5O)[C@H]5C(C)(C)[C@@H](O[C@@H]6OC[C@@H](O)[C@H](O)[C@H]6O)CC[C@@]56C[C@@]46CC[C@]23C)O1 [Astragaloside IV] | 4.8 ± 0.05% | 6.62 ± 2.72% | – |
| CC(=O)OC1C(O)COC(OC2CCC34CC35CCC3(C)C(C6(C)CCC(C(C)(C)O)O6)C(O)CC3(C)C5CC(OC3OC(CO)C(O)C(O)C3O)C4C2(C)C)C1OC(C)=O (stereo not drawn) [Astragaloside I] | < 0% | 8.38 ± 1.28% | – |
| CC(C)(O)[C@@H]1CC[C@](C)([C@H]2[C@@H](O)C[C@@]3(C)[C@@H]4C[C@H](O[C@@H]5O[C@H](CO)[C@@H](O)[C@H](O)[C@H]5O)[C@H]5C(C)(C)[C@@H](O[C@@H]6OC[C@@H](O)[C@H](O)[C@H]6O[C@@H]6O[C@H](CO)[C@@H](O)[C@H](O)[C@H]6O)CC[C@@]56C[C@@]46CC[C@]23C)O1 [Astragaloside VI] | 6.23 ± 2.82% | 7.72 ± 0.53% | – |
| CC(=O)OC1C(O)COC(OC2CCC34CC35CCC3(C)C(C6(C)CCC(C(C)(C)O)O6)C(O)CC3(C)C5CC(OC3OCC(O)C(O)C3O)C4C2(C)C)C1OC(C)=O (stereo not drawn) [Astrasieversianin II] | 8.01 ± 0.48% | 13.6 ± 1.79% | – |
| CC(C)(O)C1CCC(C)(C2C(O)CC3(C)C4CC(OC5OCC(O)C(O)C5O)C5C(C)(C)C(OC6OCC(O)C(O)C6O)CCC56CC46CCC23C)O1 (stereo not drawn) [Astrasieversianin X] | 8.6 ± 0.91% | 10.1 ± 2.34% | – |
| CC(CCC(O)C(C)(C)O)C1C(O)CC2(C)C3CC(OC4OC(CO)C(O)C(O)C4O)C4C(C)(C)C(OC5OCC(O)C(O)C5O)CCC45CC35CCC12C (stereo not drawn) [Cyclocanthoside E] | 2.18 ± 1.81% | 5.35 ± 1.82% | – |
| CC(CCC(O)C(C)(C)O)C1C(O)CC2(C)C3CC(OC4OC(CO)C(O)C(O)C4O)C4C(C)(C)C(OC5OCC(O)C(O)C5OC5OC(CO)C(O)C(O)C5O)CCC45CC35CCC12C (stereo not drawn) [Cyclocanthoside G] | 6.85 ± 0.72% | 8.23 ± 0.24% | – |
| C[C@@H]1CC[C@@]2(OC1)O[C@H]1C[C@H]3[C@@H]4CC=C5C[C@@H](O)CC[C@]5(C)[C@H]4CC[C@]3(C)[C@H]1[C@@H]2C [Diosgenin] | 4.31 ± 0.37% | 8.12 ± 2.64% | IC50 AChE [3]: 103.60 µg/mL (≈ 250 µM) |
| COc1ccc2c3c1O[C@H]1C[C@@H](O)C=C[C@@]31CCN(C)C2 [Galanthamine HBr, reference compound] | – | 60.3 ± 1.36% | – |
| C[C@@H]1CC[C@@]2(OC1)O[C@H]1C[C@H]3[C@@H]4CC[C@H]5C[C@@H](O)CC[C@]5(C)[C@H]4CC(=O)[C@]3(C)[C@H]1[C@@H]2C [Hecogenin] | 25% | 17.3 ± 1.84% | ChE Inhibition (Inhibition % ± S.D. at 100 µg/mL) AChE (AChE [1]; [6]): 25.36 ± 1.11% |
| COC(=O)C1=COC(OC2OC(CO)C(O)C(O)C2O)C2C(C)(O)CCC12O (stereo not drawn) [Ipolamide] | < 0% | – | inhibition at 100 µg/mL (BChE [2]; [6]): 12.4 ± 2.28% |
| COc1cc2nc3occc3c(OC)c2cc1OC [Kokusaginine] | 62.4 ± 3.2% | – | IC50 (AChE [1]): 271 µM; IC50 (BChE [2]): 237 µM; inhibition at 100 µg/mL (BChE [2]; [6]): 67.4 ± 3.1% |
| COC(=O)C1=COC(OC2OC(CO)C(O)C(O)C2O)C2C1(O)CC(O)C2(C)O (stereo not drawn) [Lamiide] | < 0% | – | inhibition at 100 µg/mL (BChE [2]; [6]): 8.77 ± 0.92% |
| O=C(O)C1OC(Oc2cc(O)c3c(=O)cc(-c4ccc(O)c(O)c4)oc3c2)C(O)C(O)C1O (stereo not drawn) [Luteolin-7-O-glucuronide] | < 0% | < 0% | – |
| CC(=O)OC1C(OC(CCC(C)C2CCC3(C)C4C(O)CC5C(C)(C)C(OC6OC(C)C(O)C(O)C6O)CC(O)C56CC46CCC23C)C(C)(C)O)OCC(O)C1O (stereo not drawn) [Macrophyllosaponin A] | 9.69 ± 0.85% | 12.2 ± 1.83% | – |
| CC(CCC(OC1OCC(O)C(O)C1O)C(C)(C)O)C1CCC2(C)C3C(O)CC4C(C)(C)C(OC5OC(C)C(O)C(O)C5O)CC(O)C45CC35CCC12C (stereo not drawn) [Macrophyllosaponin B] | 13.2 ± 0.92% | 12.2 ± 1.16% | – |
| CC(CCC(O)C(C)(C)OC1OCC(O)C(O)C1O)C1CCC2(C)C3C(O)CC4C(C)(C)C(OC5OC(C)C(O)C(O)C5O)CC(O)C45CC35CCC12C (stereo not drawn) [Macrophyllosaponin C] | 12.4 ± 1.4% | 16.5 ± 1.57% | – |
| CC(CCC(OC1OCC(O)C(O)C1OC1OCC(O)C(O)C1O)C(C)(C)O)C1CCC2(C)C3C(O)CC4C(C)(C)C(OC5OC(C)C(O)C(O)C5O)CC(O)C45CC35CCC12C (stereo not drawn) [Macrophyllosaponin D] | 4.31 ± 1.32% | 10.1 ± 0.78% | – |
| COC(=O)[C@@H](Cc1ccc(O)c(O)c1)OC(=O)/C=C/c1ccc(O)c(O)c1 [Methyl rosmarinate] | 16.8 ± 3.84% | – | IC50 (BChE [2]): 111 µM; inhibition at 100 µg/mL (BChE [2]; [6]): 82.74 ± 0.62% |
| CC1CCC2(OC1)OC1CC3C4CCC5CC(O)CCC5(C)C4CC(O)C3(C)C1C2C (stereo not drawn) [Rockogenin] | – | 15.2 ± 2.56% | inhibition at 100 µg/mL (AChE [1]): 5.29 ± 0.52% |
| C[C@@H]1CC[C@@]2(OC1)O[C@H]1C[C@H]3[C@@H]4CC[C@@H]5C[C@@H](O)CC[C@]5(C)[C@H]4CC[C@]3(C)[C@H]1[C@@H]2C [Smilagenin] | 62.4 ± 2.44% | 15 ± 3.01% | IC50 (AChE [1]): 104 µM; IC50 (AChE [4]; read-out: IC50 AChE, compound isolated from Asparagus racemosus): 9.9 µM; IC50 (BChE [5]; compound isolated from Asparagus racemosus): 5.4 µM |
| C[C@@H]1CC[C@@]2(OC1)O[C@H]1C[C@H]3[C@@H]4CC[C@H]5C[C@@H](O)CC[C@]5(C)[C@H]4CC[C@]3(C)[C@H]1[C@@H]2C [Tigogenin] | 17% | 22.2 ± 3.09% | ChE Inhibition (Inhibition % ± S.D. at 100 µg/mL) AChE (AChE [1]; [6]): 17.09 ± 0.69% |
| C[C@@H]1O[C@@H](O[C@@H]2[C@@H](O)[C@H](OCCc3ccc(O)c(O)c3)O[C@H](CO)[C@H]2OC(=O)/C=C/c2ccc(O)c(O)c2)[C@H](O)[C@H](O)[C@H]1O [Verbascoside] | 8.12 ± 1.49% | 22.2 ± 2.54% | IC50 (AChE [4]; Calceolaria talcana study, read-out: IC50 AChE (converted)): 304 µM; AChE inhibition (AChE [4]; at 100 μg/mL, from Pseuderanthemum carruthersii): < 50%; ChE inhibition (AChE) (AChE [4]; [7]): below 30%; inhibition against AChE (AChE [4]; isolated from Olea europea L.): no inhibition; IC50 (BChE [5]; Calceolaria talcana study): 170 µM; ChE inhibition (BChE) (BChE [5]; [7]): below 30%; inhibition against BChE (BChE [5]; isolated from Olea europea L.): no inhibition |
| Forsythoside B | – | – | ChE Inhibition (Inhibition % ± S.D. at 100 µg/mL) BChE (BChE [2]; [6]): 14.80 ± 2.31%; AChE inhibition (AChE [4]; Calceolaria talcana study): no AChE inhibition |
| tannic acid [reference compound] | – | – | IC50 AChE [3]: 0.10 µg/mL |
